Some test systems named below: NCI-H460 lung; SK-MEL-28 melanoma; HCT-15 colon; SR leukemia; LOX IMVI melanoma; OVCAR-3 ovarian; SNB-19 CNS; SF-295 CNS; HOP-92 NSCLC; A498 renal.
Common to all, as to test: growth of human tumour cells (NCI), 48 h

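Five compound concentrations were applied to cells in 96-well plates for 48 hours; endpoints were derived by simple linear interpolation of the resulting dose-response curve. GI50: concentration for 50% inhibition of growth. At the TGI there is no net growth.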 Where only a bound is given, the exact number is not on record here.

Here are results for 22 compounds from PubChem BioAssay (NCI).

For the compound `CSCCCN(CCCSC)CCCSC`, the TGI in the assay with NCI-H460 lung was over 100 µM; with SK-MEL-28 melanoma, over 100 µM; in the assay on HCT-15 colon, over 100 µM; with SR leukemia, 58.8 µM; in the assay on LOX IMVI melanoma, over 100 µM; in the assay on OVCAR-3 ovarian, over 100 µM. In addition, the TGI with SNB-19 CNS and in the assay on SF-295 CNS was over 100 µM in each case.

Regarding `O=[N+]([O-])c1cnc(Sc2ccncn2)s1`, the GI50 was 8.12 µM in the assay on NCI-H460 lung; 1.98 µM in the assay on SK-MEL-28 melanoma; 1.75 µM in the assay on HCT-15 colon; 1.99 µM with HOP-92 NSCLC; 2.65 µM in the assay on LOX IMVI melanoma; 1.74 µM in the assay with OVCAR-3 ovarian. The GI50 is 15.9 µM with SNB-19 CNS, 18.6 µM in the assay with A498 renal and 18 µM in the assay with SF-295 CNS. The TGI stood at 25.9 µM in the assay on NCI-H460 lung; 3.69 µM in the assay on SK-MEL-28 melanoma; 3.44 µM with HCT-15 colon; 4.4 µM in the assay with HOP-92 NSCLC; 6.7 µM in the assay on LOX IMVI melanoma; 3.16 µM with OVCAR-3 ovarian. Also, the TGI was determined as 31.9 µM with SNB-19 CNS, 33.3 µM in the assay with A498 renal and 41 µM in the assay on SF-295 CNS.

In the case of `CC(=O)NC1=C(NCC(C)(C)C)C(=O)c2ccccc2C1=O`, the TGI with NCI-H460 lung, in the assay with SK-MEL-28 melanoma, in the assay with HCT-15 colon, with SR leukemia, in the assay on LOX IMVI melanoma and in the assay with OVCAR-3 ovarian was over 100 µM each time. The TGI in the assay with SNB-19 CNS and with SF-295 CNS was over 100 µM each time.

On to `CCOC(=O)COc1cccc2c1C(=O)CCO2`, for which the TGI in the assay on NCI-H460 lung, in the assay on SK-MEL-28 melanoma, in the assay on HCT-15 colon, in the assay on LOX IMVI melanoma, in the assay on OVCAR-3 ovarian and with SNB-19 CNS was over 100 µM in each case. Moreover, the TGI in the assay with A498 renal and with SF-295 CNS was over 100 µM throughout.

`COC(=O)[C@@]12C3=NO[C@]1(C(=O)OC)C(O[Si](C)(C)C(C)(C)C)[C@H]1OC(C)(C)O[C@H]1[C@@H]2C(OCc1ccccc1)CC3` (stereo not given in full): the TGI with NCI-H460 lung is 23.7 µM; in the assay on SK-MEL-28 melanoma, over 100 µM; in the assay with HCT-15 colon it was over 100 µM; with HOP-92 NSCLC, 22.6 µM; with LOX IMVI melanoma, over 100 µM; in the assay on OVCAR-3 ovarian, over 100 µM. Also, the TGI in the assay on SNB-19 CNS is 99.8 µM; with A498 renal, over 100 µM; in the assay with SF-295 CNS it was over 100 µM.

Regarding `Cc1cc(=O)[nH]c(NNC(C#N)c2cccc(O)c2)n1` (stereo not given), the TGI with NCI-H460 lung, in the assay on SK-MEL-28 melanoma, in the assay on HCT-15 colon, in the assay with HOP-92 NSCLC, with SR leukemia and in the assay on LOX IMVI melanoma was over 100 µM in each case. Besides, the TGI with OVCAR-3 ovarian and with SF-295 CNS was over 100 µM each time.

On to `CC1=C(C(=O)Nc2ccc(F)c(Cl)c2)C(c2ccc(Cl)cc2)NC(=O)N1` (stereo not given), for which the GI50 in the assay with NCI-H460 lung is 17.5 µM; with SK-MEL-28 melanoma, 16.5 µM; with HCT-15 colon, 19.5 µM; in the assay on HOP-92 NSCLC it was 11.8 µM; in the assay on LOX IMVI melanoma, 16.6 µM; in the assay on OVCAR-3 ovarian it was 17.8 µM. Further, the GI50 in the assay with SNB-19 CNS was 33.1 µM; with A498 renal, 13.9 µM; in the assay on SF-295 CNS it was 32.5 µM. Moreover, the TGI in the assay with NCI-H460 lung stood at 37.3 µM; in the assay on SK-MEL-28 melanoma, 32.6 µM; with HCT-15 colon it was 41.1 µM; in the assay with HOP-92 NSCLC, 26.6 µM; in the assay with LOX IMVI melanoma it was 32 µM; with OVCAR-3 ovarian, 38.4 µM. Besides, the TGI in the assay on SNB-19 CNS was over 100 µM; in the assay on A498 renal, 29 µM; in the assay with SF-295 CNS it was over 100 µM.

As for `CSc1ccccc1C#C/C=C\C#Cc1ccccc1N1CCCC1=O`, the TGI with NCI-H460 lung was over 50 µM; in the assay on SK-MEL-28 melanoma it was over 50 µM; in the assay on HCT-15 colon, over 50 µM; in the assay with HOP-92 NSCLC it was over 50 µM; in the assay on LOX IMVI melanoma, over 50 µM; in the assay with OVCAR-3 ovarian, over 14 µM. Further, the TGI in the assay on SNB-19 CNS, in the assay with A498 renal and in the assay with SF-295 CNS was over 50 µM throughout. In addition, the GI50 with SNB-19 CNS is over 11 µM; in the assay with A498 renal it was over 50 µM; in the assay with SF-295 CNS, over 50 µM.

For `COc1ccc2c(c1)C1(C=N2)CCN(C(C)=O)CC1`, the TGI in the assay on NCI-H460 lung, in the assay on SK-MEL-28 melanoma, in the assay with HCT-15 colon, in the assay on HOP-92 NSCLC, in the assay on LOX IMVI melanoma and in the assay with OVCAR-3 ovarian was over 100 µM each time. Also, the TGI in the assay with A498 renal and in the assay on SF-295 CNS was over 100 µM throughout.

Consider `COc1ccccc1NC(=O)CC(=O)n1nc(C)c(N=Nc2ccccc2C(=O)O)c1C`, for which the TGI in the assay with NCI-H460 lung, in the assay with SK-MEL-28 melanoma, in the assay with HCT-15 colon, with LOX IMVI melanoma, with OVCAR-3 ovarian and in the assay with SNB-19 CNS was over 100 µM throughout. Moreover, the TGI in the assay on A498 renal and with SF-295 CNS was over 100 µM throughout.

As for `Nc1ccc(C(=O)N/C(=C\c2ccc3c(c2)OCO3)c2nc3[nH]c(=S)[nH]c(=O)c3[nH]2)cc1`, the TGI in the assay with SK-MEL-28 melanoma, in the assay on HCT-15 colon, with HOP-92 NSCLC, with SR leukemia, with OVCAR-3 ovarian and in the assay on SNB-19 CNS was over 100 µM throughout. Besides, the TGI in the assay with SF-295 CNS is over 100 µM.

Consider `COc1cc2cnc3c4cc(OC(C)C)c(OC)cc4ccc3c2cc1OC`, for which the TGI in the assay on NCI-H460 lung, with SK-MEL-28 melanoma, in the assay with HCT-15 colon, with OVCAR-3 ovarian, in the assay with SNB-19 CNS and in the assay on A498 renal was over 100 µM in each case. Moreover, the TGI in the assay on SF-295 CNS was over 100 µM.

In the case of `CC(=O)OC1COC(n2c(=S)n(-c3ccc(C)cc3)c(=O)c3ccccc32)C(OC(C)=O)C1OC(C)=O` (stereo not given), the TGI with NCI-H460 lung, in the assay on SK-MEL-28 melanoma, with HCT-15 colon, with HOP-92 NSCLC, in the assay with LOX IMVI melanoma and in the assay with OVCAR-3 ovarian was over 100 µM in each case. The TGI in the assay with SNB-19 CNS, in the assay with A498 renal and in the assay with SF-295 CNS was over 100 µM in each case.

Take `O=c1cc(-c2cccc(O)c2)[nH]c2cc3c(cc12)OCO3`: the TGI in the assay with NCI-H460 lung is over 100 µM; in the assay with SK-MEL-28 melanoma, 83.5 µM; in the assay on HCT-15 colon it was over 100 µM; in the assay on LOX IMVI melanoma, over 100 µM; in the assay on OVCAR-3 ovarian, 0.386 µM; in the assay on SNB-19 CNS it was over 49.6 µM. The TGI in the assay with A498 renal and in the assay on SF-295 CNS was over 100 µM throughout.

Turning to `O=[S@@]1Nc2ccc(Br)cc2S1`, the TGI in the assay with SK-MEL-28 melanoma was over 100 µM; with HOP-92 NSCLC, over 100 µM; in the assay on SR leukemia it was over 100 µM; in the assay on LOX IMVI melanoma it was over 100 µM; in the assay on OVCAR-3 ovarian, over 100 µM; in the assay with SNB-19 CNS it was 39.3 µM. The same compound yielded a TGI with SF-295 CNS of over 100 µM.

Regarding `C=CCc1cc(OC)c2c(c1)C(O)CC(c1ccc(OC)c(OC)c1)O2` (stereo not given), the TGI with NCI-H460 lung, in the assay with SK-MEL-28 melanoma, in the assay with HCT-15 colon, in the assay with HOP-92 NSCLC, with SR leukemia and in the assay with OVCAR-3 ovarian was over 100 µM in each case. Also, the TGI in the assay with SNB-19 CNS and with SF-295 CNS was over 100 µM throughout.

Regarding `CN(CC(=O)O)S(=O)(=O)c1ccc2ccccc2c1`, the TGI in the assay with NCI-H460 lung, in the assay with SK-MEL-28 melanoma, with HCT-15 colon, with HOP-92 NSCLC, with LOX IMVI melanoma and in the assay on OVCAR-3 ovarian was over 100 µM in each case. Moreover, the TGI with SNB-19 CNS, in the assay with A498 renal and in the assay on SF-295 CNS was over 100 µM each time.

`Clc1cccc(Cc2cn3cc(-c4ccccc4)nc3s2)c1Cl`: the GI50 with NCI-H460 lung was over 100 µM; in the assay with SK-MEL-28 melanoma it was 54.4 µM; in the assay on HCT-15 colon, over 100 µM; in the assay with HOP-92 NSCLC, 2.84 µM; in the assay on LOX IMVI melanoma, 14.5 µM; with OVCAR-3 ovarian, 37.9 µM. The GI50 in the assay with SNB-19 CNS was 24.4 µM. The TGI in the assay on NCI-H460 lung is over 100 µM; with SK-MEL-28 melanoma, over 100 µM; in the assay on HCT-15 colon, over 100 µM; in the assay with HOP-92 NSCLC, 16.9 µM; in the assay on LOX IMVI melanoma, over 100 µM; with OVCAR-3 ovarian, over 100 µM. The same compound had a TGI in the assay with SNB-19 CNS of over 100 µM.

Take `CCOC(=O)c1ncn2c1[nH]c(=S)c1ccccc12`: the TGI in the assay with NCI-H460 lung, with SK-MEL-28 melanoma, in the assay with HCT-15 colon, in the assay with HOP-92 NSCLC, with LOX IMVI melanoma and in the assay on OVCAR-3 ovarian was over 100 µM each time. The TGI with SNB-19 CNS, in the assay with A498 renal and in the assay on SF-295 CNS was over 100 µM throughout.

For `COc1ccc(-c2cc(=O)c3ccc(O)cc3o2)c(OC)c1OC`, the TGI in the assay on SK-MEL-28 melanoma, with HOP-92 NSCLC, in the assay on LOX IMVI melanoma, in the assay on OVCAR-3 ovarian, with SNB-19 CNS and in the assay on SF-295 CNS was over 100 µM throughout.

On to `c1cc2c(cc1NC1=NCCO1)CCC2`, for which the TGI in the assay with SK-MEL-28 melanoma, in the assay on HCT-15 colon, in the assay with HOP-92 NSCLC, in the assay on SR leukemia, in the assay with LOX IMVI melanoma and with OVCAR-3 ovarian was over 10 µM throughout. For the same compound, the TGI in the assay with SNB-19 CNS is 7.72 µM; in the assay with SF-295 CNS it was over 10 µM.

As for `CCOC(=O)C1=C(C)CC2C(=O)OC(=O)C2C1(C)C` (stereo not given), the TGI in the assay on NCI-H460 lung, with SK-MEL-28 melanoma, with HCT-15 colon, in the assay on HOP-92 NSCLC, with SR leukemia and in the assay on OVCAR-3 ovarian was over 100 µM each time. Also, the TGI in the assay on SNB-19 CNS and with SF-295 CNS was over 100 µM in each case.
